Reference: the NIST ThermoML archive (doi:10.1021/je020205i)

Test: xn = mol fraction of the nth substance listed
Details: Fluid (supercritical or subcritical phases), Taylor dispersion method, x1 = 0

CCCCC/C=C\C/C=C\CCCCCCCC(=O)O [(Z,Z)-9,12-octadecadienoic acid] + O=C=O
Details	binary diffusion coefficient [m2/s]
308.15 K, 8500 kPa	8.7e-09
308.15 K, 8970 kPa	8.31e-09
308.15 K, 10000 kPa	7.53e-09
308.15 K, 11020 kPa	7.33e-09
308.15 K, 12000 kPa	6.89e-09
308.15 K, 14000 kPa	6.45e-09
308.15 K, 16010 kPa	6.13e-09
308.15 K, 17470 kPa	6.02e-09
308.15 K, 18020 kPa	5.9e-09
308.15 K, 20000 kPa	5.85e-09
308.15 K, 21000 kPa	5.71e-09
308.15 K, 22030 kPa	5.69e-09
308.15 K, 25000 kPa	5.26e-09
308.15 K, 26000 kPa	5.2e-09
308.15 K, 28050 kPa	5.05e-09
308.15 K, 30300 kPa	4.96e-09
313.21 K, 9490 kPa	9.47e-09
313.21 K, 10040 kPa	8.74e-09
313.21 K, 10990 kPa	8.03e-09
313.21 K, 12000 kPa	7.7e-09
313.21 K, 14020 kPa	7.17e-09
313.21 K, 15980 kPa	6.75e-09
313.21 K, 17980 kPa	6.47e-09
313.21 K, 20000 kPa	6.13e-09
313.21 K, 21990 kPa	5.97e-09
313.21 K, 24000 kPa	5.77e-09
313.21 K, 26010 kPa	5.63e-09
313.21 K, 27990 kPa	5.46e-09
313.21 K, 30040 kPa	5.49e-09
313.21 K, 30110 kPa	5.39e-09
323.15 K, 12020 kPa	8.9e-09
323.15 K, 12510 kPa	9.15e-09
323.15 K, 13000 kPa	8.86e-09
323.15 K, 14000 kPa	8.58e-09
323.15 K, 16000 kPa	7.76e-09
323.15 K, 18000 kPa	7.39e-09
323.15 K, 20010 kPa	7.06e-09
323.15 K, 22000 kPa	6.83e-09
323.15 K, 24000 kPa	6.57e-09
323.15 K, 26000 kPa	6.37e-09
323.15 K, 28020 kPa	6.12e-09
323.15 K, 30290 kPa	5.9e-09
333.15 K, 13890 kPa	9.59e-09
333.15 K, 14480 kPa	9.99e-09
333.15 K, 15000 kPa	9.67e-09
333.15 K, 15980 kPa	9.33e-09
333.15 K, 18000 kPa	8.66e-09
333.15 K, 20000 kPa	8.28e-09
333.15 K, 20050 kPa	8.17e-09
333.15 K, 22000 kPa	7.82e-09
333.15 K, 24020 kPa	7.58e-09
333.15 K, 26060 kPa	7.21e-09
333.15 K, 27020 kPa	7.14e-09
333.15 K, 28020 kPa	7.03e-09
333.15 K, 29040 kPa	6.99e-09
333.15 K, 30070 kPa	6.82e-09
343.15 K, 16200 kPa	1.02e-08
343.15 K, 16210 kPa	1.04e-08
343.15 K, 16990 kPa	1.02e-08
343.15 K, 17990 kPa	9.85e-09
343.15 K, 18000 kPa	9.84e-09
343.15 K, 18990 kPa	9.43e-09
343.15 K, 20000 kPa	9.01e-09
343.15 K, 20040 kPa	9.18e-09
343.15 K, 22000 kPa	8.71e-09
343.15 K, 24000 kPa	8.37e-09
343.15 K, 26010 kPa	8.11e-09
343.15 K, 26990 kPa	7.88e-09
343.15 K, 28010 kPa	7.77e-09
343.15 K, 29050 kPa	7.81e-09
343.15 K, 30030 kPa	7.64e-09

CCCCCC=CCC=CCC=CCC=CCCCC(=O)O [5,8,11,14-eicosatetraenoic acid] + O=C=O
Details	binary diffusion coefficient [m2/s]
308.15 K, 9500 kPa	7.5e-09
308.15 K, 10000 kPa	7.17e-09
308.15 K, 10520 kPa	7.03e-09
308.15 K, 10870 kPa	6.75e-09
308.15 K, 11000 kPa	6.58e-09
308.15 K, 11500 kPa	6.57e-09
308.15 K, 12010 kPa	6.7e-09
308.15 K, 12020 kPa	6.48e-09
308.15 K, 12490 kPa	6.27e-09
308.15 K, 12990 kPa	6.18e-09
308.15 K, 14000 kPa	6.17e-09
308.15 K, 15990 kPa	5.9e-09
308.15 K, 17990 kPa	5.63e-09
308.15 K, 20010 kPa	5.48e-09
308.15 K, 22000 kPa	5.38e-09
308.15 K, 24000 kPa	5.25e-09
308.15 K, 26000 kPa	5.11e-09
308.15 K, 28010 kPa	5.02e-09
308.15 K, 30240 kPa	4.99e-09
308.15 K, 30490 kPa	4.85e-09
313.21 K, 9500 kPa	9.04e-09
313.21 K, 10000 kPa	8.41e-09
313.21 K, 11010 kPa	7.76e-09
313.21 K, 12010 kPa	7.1e-09
313.21 K, 14000 kPa	6.66e-09
313.21 K, 16000 kPa	6.29e-09
313.21 K, 18000 kPa	6.06e-09
313.21 K, 20000 kPa	5.78e-09
313.21 K, 22010 kPa	5.64e-09
313.21 K, 24010 kPa	5.53e-09
313.21 K, 26010 kPa	5.36e-09
313.21 K, 28020 kPa	5.24e-09
313.21 K, 30040 kPa	5.1e-09
313.21 K, 30130 kPa	5.1e-09
323.15 K, 12010 kPa	9.02e-09
323.15 K, 12500 kPa	9.07e-09
323.15 K, 13020 kPa	8.66e-09
323.15 K, 13480 kPa	8.28e-09
323.15 K, 14010 kPa	8.15e-09
323.15 K, 15990 kPa	7.44e-09
323.15 K, 18000 kPa	7.03e-09
323.15 K, 20020 kPa	6.78e-09
323.15 K, 21990 kPa	6.42e-09
323.15 K, 24000 kPa	6.21e-09
323.15 K, 26000 kPa	6.02e-09
323.15 K, 28020 kPa	5.88e-09
323.15 K, 30050 kPa	5.64e-09
323.15 K, 30060 kPa	5.82e-09
333.15 K, 13890 kPa	1.05e-08
333.15 K, 15030 kPa	9.16e-09
333.15 K, 15500 kPa	9.04e-09
333.15 K, 16980 kPa	8.47e-09
333.15 K, 17500 kPa	8.32e-09
333.15 K, 19010 kPa	7.91e-09
333.15 K, 19990 kPa	7.67e-09
333.15 K, 22010 kPa	7.26e-09
333.15 K, 24000 kPa	7.01e-09
333.15 K, 26010 kPa	6.81e-09
333.15 K, 26060 kPa	6.78e-09
333.15 K, 28030 kPa	6.68e-09
333.15 K, 30160 kPa	6.49e-09
343.15 K, 16200 kPa	1.01e-08
343.15 K, 16990 kPa	9.57e-09
343.15 K, 17490 kPa	9.45e-09
343.15 K, 18010 kPa	9.14e-09
343.15 K, 18990 kPa	8.93e-09
343.15 K, 19990 kPa	8.61e-09
343.15 K, 21000 kPa	8.46e-09
343.15 K, 22010 kPa	8.32e-09
343.15 K, 22980 kPa	7.87e-09
343.15 K, 23990 kPa	7.79e-09
343.15 K, 26000 kPa	7.58e-09
343.15 K, 28000 kPa	7.12e-09
343.15 K, 28050 kPa	7.3e-09
343.15 K, 30260 kPa	7.13e-09
